For assay [1], the system named is TERT expression. Description: TERT expression by qRT-PCR in human cancer cell lines treated with inhibitors. Format: cell-based. As to conditions: 0.2 uM AZD6244, 24 hours. On the procedure:
(§1) FIG. 2A-2G. BRAF V600E/MAPK pathway regulated TERT expression. (FIG. 2A) TERT expression was analyzed by qRT-PCR in cells treated with 0.5 uM PLX4032 or 0.2 uM AZD6244 for 24 hours (upper panel). The corresponding levels of phosphorylated ERK (p-ERK), total ERK (t-ERK), and beta-actin were detected by Western blotting (lower panel). The relative TERT mRNA expression levels were normalized to the DMSO control group. (FIG. 2B) Luciferase reporting assay of TERT promoter activities in K1 cells treated with DMSO or PLX4032 (0.5 uM). (FIG. 2C, 2D) Specific shRNA against BRAF were used to knock down BRAF in thyroid cancer cell lines BCPAP and K1 and melanoma cell line A375. Scramble shRNA was used as control. Cells were then subjected to Western blotting (FIG. 2C) and qRT-PCR (FIG. 2D). (FIG. 2E) Sequencing of the BRAF exon-15 in the parental and heterozygous BRAF-V600E knock-in SW48 cells. BRAF V600E was knocked in on one allele of BRAF by rAAV technology through homologous recombination and Cre recombinase of the Neo cassette. (FIG. 2F) Western blotting analyses of phosphorylation of ERK (p-ERK), total ERK (t-ERK), BRAF, and beta-actin in the parental and BRAF-V600E knock-in SW48 cells. (FIG. 2G) TERT promoter luciferase reporter assay in SW48 cells with/without BRAF V600E knock-in. **P<0.01, ***P<0.001, by 2-tailed Student's t test. P values are for the comparison of the indicated condition with DMSO (FIG. 2B), scramble (FIG. 2D), or BRAF-WT groups (FIG. 2G). All the values represent the average standard deviation (SD) of triplicate samples from a typical experiment. All the experiments were performed three times with similar results.
FIG. 3A-3C. MYC regulated TERT expression in a TERT promoter mutation-independent manner. (FIG. 3A) The four indicated cancer cell lines harboring BRAF V600E mutation were treated with 0.5 uM PLX4032 and/or 10 nM MYC-specific siRNA (siMYC) for 24 hours, which were then subjected to Western blotting (upper panel) and qRT-PCR (lower panel). The relative TERT mRNA expression was normalized to the control group. (FIG. 3B, 3C) Parental and BRAF V600E knock-in SW48 cells were treated with control siRNA (siControl) or MYC-specific siRNA (siMYC, 10 nM) for 48 h, followed by Western blotting (FIG. 3B) and luciferase reporter assays (FIG. 3C). *P<0.05, **P<0.01, ***P<0.001, by 2-tailed Student's t test. n.s., not significant. All the values represent the average standard deviation (SD) of triplicate samples from a typical experiment. Similar results were obtained in two additional independent experiments.
FIG. 9A-9B. Summarized effects of PLX4032 (FIG. 9A) and AZD6244 (FIG. 9B) on TERT mRNA expression. Each bar represents the average+SD of the cells with the same genotypes as follows: BRAF-mut and TERT-mut cell lines: BCPAP, K1, OCUT1, A375, and M14; BRAF-mut and TERT-wt cell lines: SK-MEL-1, SK-MEL-3, and RKO; BRAF-wt and TERT-mut cell lines: TPC1, KAT18, C643, CHL-1, SK-MEL-2, and Mewo; BRAF-wt and TERT-wt cell lines: FB1, WRO, and HTORI3. Compared with the corresponding control of DMSO, **P<0.01, ***P<0.001, by independent t-test.
The BRAF V600E-specific inhibitor PLX4032 (#S1267) and the MEK1 inhibitor AZD6244 (#S1008) were purchased from Selleck Chemicals (Houston, TX), dissolved in DMSO with a stock concentration of 10 mM and stored at −20° C. PLX4032 and AZD6244 were used to treat cells for 24 hours at 0.5 μM and 0.2 μM, respectively, where indicated in the manuscript. DMSO was used as the vehicle control.
Total RNA was extracted from cultured cells using the TRIzol reagent (#15596-018; Ambion, Life Technologies, Carlsbad, CA) and reverse-transcribed to cDNA using the SuperScript III First-Strand Synthesis System (#18080-051; Invitrogen, Life Technologies, Carlsbad, CA). Gene expression was analyzed in triplicate using FastStart Universal SYBR Green Master with ROX (#04913850001; Roche Applied Science, Indianapolis, IN) on the Applied Biosystems 7900HT Fast Real-Time PCR System. […]

Assay [2] relates to ERK phosphorylation. Description: Western blotting of phosphorylated ERK in inhibitor-treated cells. It is filed as cell-based, human. As to conditions: cells harboring wild-type BRAF; 0.2 uM AZD6244, 24 hours. On the procedure:
as §1, with “results. […]” for “results.”
Cells were lysed in the RIPA buffer (#sc-24948; Santa Cruz Biotechnology, Santa Cruz, CA) with protease inhibitor cocktail (#P8340; Sigma-Aldrich) and phosphatase inhibitor cocktail (#P0044; Sigma-Aldrich) and Western blotting analysis was performed as we previously described^54. […] Signals were detected by SuperSignal™ West Pico PLUS Chemiluminescent Substrate (#34579; Thermo Fisher Scientific). […]

From patent US11911356B2, “Regulation of mutant TERT by BRAF V600E/map kinase pathway through FOS/GABP in human cancer” (THE JOHNS HOPKINS UNIVERSITY, priority 2017, dated 2024) come the findings set out here.

With `Cn1cnc2c(F)c(Nc3ccc(Br)cc3Cl)c(C(=O)NOCCO)cc21` [AZD6244], the TERT expression entry is “similarly inhibited TERT expression” in assay [1] (cells harboring BRAF V600E mutation) and “inhibited TERT expression more in those harboring TERT promoter mutations” in assay [1] (cells harboring wild-type BRAF, TERT promoter mutant versus wild-type). Besides, the ERK phosphorylation entry in assay [2] is “modest inhibitory effect”.
